According to ChEMBL document CHEMBL4002584, “Synthesis and antibacterial activities of novel pleuromutilin derivatives with a substituted pyrimidine moiety” (2017):
In brackets after ≈: the same amount, converted by molar mass.

Assays:
Assay type in all cases: functional
Escherichia coli [1] = assay: Antibacterial activity against Escherichia coli CMCC (B) 44102 at 160 ug/ml after 24 to 36 hrs by oxford cup assay; details: read-out: DIZ
Staphylococcus aureus [2] = assay: Antibacterial activity against […] Staphylococcus aureus ATCC 33591 at 160 ug/ml after 24 to 36 hrs by oxford cup assay; details: read-out: DIZ
Escherichia coli [3] = assay: Antibacterial activity against Escherichia coli CMCC (B) 44102 after 24 to 48 hrs by agar dilution method
Staphylococcus aureus [4] = assay: Antibacterial activity against […] Staphylococcus aureus ATCC 33591 after 24 to 48 hrs by agar dilution method
Staphylococcus aureus [5] = assay: Antibacterial activity against Staphylococcus aureus CMCC (B) 26003 at 160 ug/ml after 24 to 36 hrs by oxford cup assay; details: read-out: DIZ
Escherichia coli [6] = assay: Antibacterial activity against Escherichia coli CMCC (B) 44102 at 320 ug/ml after 24 to 36 hrs by oxford cup assay; details: read-out: DIZ
Bacillus subtilis [7] = assay: Antibacterial activity against Bacillus subtilis CMCC (B) 63501 after 24 to 48 hrs by agar dilution method
Staphylococcus aureus [8] = assay: Antibacterial activity against […] Staphylococcus aureus ATCC 29213 at 160 ug/ml after 24 to 36 hrs by oxford cup assay; details: read-out: DIZ
Staphylococcus aureus [9] = assay: Antibacterial activity against Staphylococcus aureus CMCC (B) 26003 after 24 to 48 hrs by agar dilution method
Staphylococcus aureus [10] = assay: Antibacterial activity against […] Staphylococcus aureus ATCC 29213 after 24 to 48 hrs by agar dilution method
Staphylococcus aureus [11] = assay: Antibacterial activity against […] Staphylococcus aureus ATCC 29213 at 320 ug/ml after 24 to 36 hrs by oxford cup assay; details: read-out: DIZ
Bacillus subtilis [12] = assay: Antibacterial activity against Bacillus subtilis CMCC (B) 63501 at 160 ug/ml after 24 to 36 hrs by oxford cup assay; details: read-out: DIZ
Staphylococcus aureus [13] = assay: Antibacterial activity against […] Staphylococcus aureus ATCC 33591 at 320 ug/ml after 24 to 36 hrs by oxford cup assay; details: read-out: DIZ
Staphylococcus aureus [14] = assay: Antibacterial activity against Staphylococcus aureus CMCC (B) 26003 at 320 ug/ml after 24 to 36 hrs by oxford cup assay; details: read-out: DIZ
Bacillus subtilis [15] = assay: Antibacterial activity against Bacillus subtilis CMCC (B) 63501 at 320 ug/ml after 24 to 36 hrs by oxford cup assay; details: read-out: DIZ
Staphylococcus aureus [16] = assay: Ratio of MIC for […] Staphylococcus aureus ATCC 29213 to MIC for Staphylococcus aureus CMCC (B) 26003
Staphylococcus aureus [17] = assay: Bactericidal activity against […] Staphylococcus aureus ATCC 29213 after 1 to 24 hrs by time-kill assay
Staphylococcus aureus [18] = assay: Bactericidal activity against Staphylococcus aureus CMCC (B) 26003 assessed as bacterial level at MIC after 1 to 24 hrs by time-kill assay
Staphylococcus aureus [19] = assay: Bactericidal activity against Staphylococcus aureus CMCC (B) 26003 at 6 times MIC after 4 hrs by time-kill assay relative to control
Staphylococcus aureus [20] = assay: Bactericidal activity against Staphylococcus aureus CMCC (B) 26003 after 1 to 24 hrs by time-kill assay
Staphylococcus aureus [21] = assay: Antibacterial activity against […] Staphylococcus aureus ATCC 29213 in iv dosed Balb/c mouse systemic infection model assessed as increase in mouse survival after 7 days

Row | SMILES | zone of inhibition at 160 µg/mL (Escherichia coli [1]) [mm] | zone of inhibition at 160 µg/mL (Staphylococcus aureus [2]) [mm] | MIC (Escherichia coli [3]) [µg/mL] | MIC (Staphylococcus aureus [4]) [µg/mL] | zone of inhibition at 160 µg/mL (Staphylococcus aureus [5]) [mm] | zone of inhibition at 320 µg/mL (Escherichia coli [6]) [mm] | MIC (Bacillus subtilis [7]) [µg/mL] | zone of inhibition at 160 µg/mL (Staphylococcus aureus [8]) [mm] | MIC (Staphylococcus aureus [9]) [µg/mL] | MIC (Staphylococcus aureus [10]) [µg/mL] | zone of inhibition at 320 µg/mL (Staphylococcus aureus [11]) [mm] | zone of inhibition at 160 µg/mL (Bacillus subtilis [12]) [mm] | zone of inhibition at 320 µg/mL (Staphylococcus aureus [13]) [mm] | zone of inhibition at 320 µg/mL (Staphylococcus aureus [14]) [mm] | zone of inhibition at 320 µg/mL (Bacillus subtilis [15]) [mm] | also measured
1 | C=C[C@]1(C)C[C@@H](OC(=O)CSc2nc(N)cc(NC(=O)CN3CCC(CCO)CC3)n2)[C@]2(C)[C@H](C)CC[C@]3(CCC(=O)[C@H]32)[C@@H](C)[C@@H]1O | 10.6 | 21.6 | 8 (≈ 11.9 µM) | 0.5 (≈ 0.744 µM) | 24 | 12.7 | 2 (≈ 2.98 µM) | 18.3 | 0.125 (≈ 0.186 µM) | 1 (≈ 1.49 µM) | 24.9 | 15.6 | 32.4 | 33.6 | 17.3 | –
2 | C=C[C@]1(C)C[C@@H](OC(=O)CSc2nc(N)cc(NC(=O)CN3CCC[C@@H](CO)C3)n2)[C@]2(C)[C@H](C)CC[C@]3(CCC(=O)[C@H]32)[C@@H](C)[C@@H]1O | 10.3 | 25.8 | 4 (≈ 6.08 µM) | 0.125 (≈ 0.19 µM) | 25.9 | 13.3 | 1 (≈ 1.52 µM) | 26.5 | 0.0625 (≈ 0.095 µM) | 0.125 (≈ 0.19 µM) | 34.4 | 17.7 | 35.1 | 38.1 | 22.2 | –
3 | C=C[C@]1(C)C[C@@H](OC(=O)CSc2nc(N)cc(NC(=O)CN(C)C)n2)[C@]2(C)[C@H](C)CC[C@]3(CCC(=O)[C@H]32)[C@@H](C)[C@@H]1O | 9.55 | 18 | 8 (≈ 13.6 µM) | 0.5 (≈ 0.851 µM) | 21.8 | 12.1 | 4 (≈ 6.81 µM) | 18.9 | 0.25 (≈ 0.425 µM) | 1 (≈ 1.7 µM) | 25.4 | 13.9 | 22.4 | 34.2 | 17.5 | –
4 | C=C[C@]1(C)C[C@@H](OC(=O)CSc2nc(N)cc(NC(=O)CN3CCCC3)n2)[C@]2(C)[C@H](C)CC[C@]3(CCC(=O)[C@H]32)[C@@H](C)[C@@H]1O | 10.2 | 18.3 | 4 (≈ 6.52 µM) | 0.5 (≈ 0.815 µM) | 22.2 | 13.4 | 2 (≈ 3.26 µM) | 19.2 | 0.125 (≈ 0.204 µM) | 0.5 (≈ 0.815 µM) | 26.5 | 14.9 | 24 | 30.4 | 20 | –
5 | C=C[C@]1(C)C[C@@H](OC(=O)CSc2nc(N)cc(N)n2)[C@]2(C)[C@H](C)CC[C@]3(CCC(=O)[C@H]32)[C@@H](C)[C@@H]1O | 11.4 | 24.2 | 2 (≈ 3.98 µM) | 0.0625 (≈ 0.124 µM) | 25.8 | 14.2 | 2 (≈ 3.98 µM) | 24.7 | 0.0625 (≈ 0.124 µM) | 0.125 (≈ 0.249 µM) | 33.5 | 17.4 | 35.8 | 38.3 | 21.9 | Ratio (Staphylococcus aureus [16]): 2; Activity (Staphylococcus aureus [17]): Dose-dependent effect; Activity (Staphylococcus aureus [18]): 3 - 4 log10CFU/ml; fold change (FC) (Staphylococcus aureus [19]): >6; Activity (Staphylococcus aureus [20]): Dose-dependent effect; Activity (Staphylococcus aureus [21]): Dose-dependent effect; ED50 (Staphylococcus aureus [21]; ATCC 29213, iv, 168 h): 4.22 mg/kg
6 | C=C[C@]1(C)C[C@@H](OC(=O)CSc2nc(N)cc(NC(=O)CN3CC[C@H](O)C3)n2)[C@]2(C)[C@H](C)CC[C@]3(CCC(=O)[C@H]32)[C@@H](C)[C@@H]1O | 8.86 | 22.7 | 8 (≈ 12.7 µM) | 0.25 (≈ 0.397 µM) | 22.1 | 10.5 | 2 (≈ 3.18 µM) | 22.1 | 0.125 (≈ 0.198 µM) | 0.125 (≈ 0.198 µM) | 29.6 | 13.6 | 33.3 | 32.7 | 15.8 | –
